Results as given in the NIST ThermoML archive (doi:10.1016/j.jct.2013.03.004).
Numbers after ± are expanded uncertainties.

Details: 101 kPa, Liquid mixture 1, Drop volume

Compound: Cc1ccccc1 [toluene] + O
- interfacial tension (293.2 K): 37.2 ± 0.3 mN/m
- interfacial tension (298.2 K): 36.3 ± 0.3 mN/m
- interfacial tension (303.2 K): 35.7 ± 0.3 mN/m
- interfacial tension (308.2 K): 35.2 ± 0.3 mN/m
- interfacial tension (313.2 K): 34.7 ± 0.3 mN/m
